Among the data in patent US20080255085A1, “Novel Imidazo [4,5-b] Pyridine Derivatives as Inhibitors of Glycogen Synthase Kinase 3 for Use in the Treatment of Dementia and Neurodegenerative Disorders” (ASTRAZENECA AB, priority 2005, published 2008) are Ki values, retold here.

Where a name gives a salt, the structure may show the parent alone.

T1 sequence (P49841 whole entry): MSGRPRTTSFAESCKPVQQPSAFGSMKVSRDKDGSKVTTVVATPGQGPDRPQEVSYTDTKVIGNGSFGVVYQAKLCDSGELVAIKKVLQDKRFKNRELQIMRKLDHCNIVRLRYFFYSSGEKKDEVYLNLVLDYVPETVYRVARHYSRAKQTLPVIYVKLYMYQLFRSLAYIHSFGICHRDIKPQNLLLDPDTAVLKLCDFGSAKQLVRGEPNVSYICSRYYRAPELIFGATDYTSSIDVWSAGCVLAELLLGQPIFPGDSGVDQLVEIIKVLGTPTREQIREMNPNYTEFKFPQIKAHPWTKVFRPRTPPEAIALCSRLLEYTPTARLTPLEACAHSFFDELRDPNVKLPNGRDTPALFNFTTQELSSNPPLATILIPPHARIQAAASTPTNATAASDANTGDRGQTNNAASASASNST

The experiment addresses T1, GSK3β (Homo sapiens, UniProt P49841).
T1 construct: purchased Dundee University, UK
In words: GSK3β Scintillation Proximity Assay (ATP competition). The following applies: recombinant human GSK3; 1 μM ATP; Km of ATP 20 μM used to calculate Ki; 20 minutes at room temperature. Type of experiment: biochemical. As to the method:
Determination of ATP Competition in Scintillation Proximity GSK3β Assay.
GSK3β Scintillation Proximity Assay.
The competition experiments were carried out in duplicate with 10 different concentrations of the inhibitors in clear-bottom microtiter plates (Wallac, Finland). A biotinylated peptide substrate, Biotin-Ala-Ala-Glu-Glu-Leu-Asp-Ser-Arg-Ala-Gly-Ser(PO3H2)-Pro-Gln-Leu (AstraZeneca, Lund), was added at a final concentration of 1 μM in an assay buffer containing 1 mU recombinant human GSK3 (Dundee University, UK), 12 mM morpholinepropanesulfonic acid (MOPS), pH 7.0, 0.3 mM EDTA, 0.01% β-mercaptorethanol, 0.004% Brij 35 (a […] detergent), 0.5% glycerol and 0.5 μg BSA/25 μl. The reaction was initiated by the addition of 0.04 μCi [γ-^33P]ATP (Amersham, UK) and unlabelled ATP at a final concentration of 1 μM and assay volume of 25 μl. After incubation for 20 minutes at room temperature, each reaction was terminated by the addition of 25 μl stop solution containing 5 mM EDTA, […] ATP, 0.1% Triton X-100 and 0.25 mg streptavidin coated Scintillation Proximity Assay (SPA) beads (Amersham, UK). After 6 hours the radioactivity was determined in a liquid scintillation counter (1450 MicroBeta Trilux, Wallac). The inhibition curves were analysed by non-linear regression using GraphPad Prism, USA. The Km value of ATP for GSK3β, used to calculate the inhibition constants (Ki) of the various compounds, was 20 μM.
Turning to `COc1cccc(-c2ccnc3[nH]c(-c4ccc(S(=O)(=O)N5CCN(C)CC5)cc4)nc23)c1` [Example 2, 7-(3-Methoxyphenyl)-2-{4-[(4-methylpiperazin-1-yl)sulfonyl]phenyl}-3H-imidazo[4,5-b]pyridine hydrochloride], the Ki was 0.124 µM. Regarding `COc1ccc(-c2ccnc3[nH]c(-c4ccc(CN5CCCCC5)cc4)nc23)cc1` [Example 6, 7-(4-Methoxyphenyl)-2-[4-(piperidin-1-ylmethyl)phenyl]-3H-imidazo[4,5-b]pyridine hydrochloride], the Ki was 0.031 µM. The result for `CN1CCN(C(=O)c2ccc(-c3nc4c(-c5cccnc5)ccnc4[nH]3)cc2)CC1` [Example 9, 2-{4-[(4-Methylpiperazin-1-yl)carbonyl]phenyl}-7-pyridin-3-yl-3H-imidazo[4,5-b]pyridine hydrochloride] reads 0.254 µM. The result for `COc1ccc(-c2ccnc3[nH]c(-c4ccc(C(=O)NCCN5CCOCC5)cc4)nc23)cc1` [Example 7, 4-[7-(4-Methoxyphenyl)-3H-imidazo[4,5-b]pyridin-2-yl]-N-(2-morpholin-4-ylethyl)benzamide hydrochloride] reads 0.044 µM.

The term Ki denotes a dissociation constant, usually derived from enzyme kinetics or from competition with a known ligand.
